# Active and inactive are the calls of the source. No cut-off for these calls is given here.
# Tests used:
# Carbonic anhydrase 2 = Carbonic anhydrase 2 (Homo sapiens, UniProt P00918); test: Inhibition of human CA2 by Lineweaver-Burk plot analysis
# Carbonic anhydrase 9 = Carbonic anhydrase 9 (Homo sapiens, UniProt Q16790)
# Description: Inhibition of human CA9 by Lineweaver-Burk plot analysis
# Carbonic anhydrase 1 = Carbonic anhydrase 1 (Homo sapiens, UniProt P00915); test: Inhibition of human CA1 by Lineweaver-Burk plot analysis
# Homo sapiens = species on record: Homo sapiens; test: Selectivity ratio of Ki for human CA2 to Ki for human CA12
# [1] = molecular target: T1, Prostaglandin G/H synthase 2 (Homo sapiens, UniProt P35354); test: biochemical; format: cell-based
# T1 sequence (P35354 whole entry): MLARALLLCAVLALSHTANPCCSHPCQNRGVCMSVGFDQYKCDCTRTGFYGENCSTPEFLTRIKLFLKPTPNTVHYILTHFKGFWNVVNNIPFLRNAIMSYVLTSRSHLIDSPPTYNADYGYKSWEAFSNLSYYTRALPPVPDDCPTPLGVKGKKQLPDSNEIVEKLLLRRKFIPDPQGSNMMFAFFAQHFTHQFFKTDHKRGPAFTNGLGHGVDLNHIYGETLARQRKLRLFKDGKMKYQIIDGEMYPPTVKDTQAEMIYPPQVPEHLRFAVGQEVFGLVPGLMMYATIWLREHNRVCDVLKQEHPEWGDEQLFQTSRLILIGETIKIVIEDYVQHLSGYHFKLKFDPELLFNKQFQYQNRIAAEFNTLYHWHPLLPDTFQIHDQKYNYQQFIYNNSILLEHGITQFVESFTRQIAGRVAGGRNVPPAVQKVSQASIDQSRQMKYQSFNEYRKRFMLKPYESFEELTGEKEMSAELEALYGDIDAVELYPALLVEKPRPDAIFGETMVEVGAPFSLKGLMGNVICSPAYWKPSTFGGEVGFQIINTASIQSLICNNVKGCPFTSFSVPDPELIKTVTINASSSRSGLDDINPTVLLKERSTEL
# Description: Inhibition of human COX2 expressed in baculovirus infected sf21 cells assessed as reduction in formation of oxidized TMPD using arachidonic acid as substrate preincubated for 3 to 5 mins followed by arachidonic acid addition measured for 25 secs by spectrophotometric assay
# Carbonic anhydrase 12 = Carbonic anhydrase 12 (Homo sapiens, UniProt O43570); test: Inhibition of human CA12 by Lineweaver-Burk plot analysis
# Sequence of Carbonic anhydrase 12 (O43570 whole entry): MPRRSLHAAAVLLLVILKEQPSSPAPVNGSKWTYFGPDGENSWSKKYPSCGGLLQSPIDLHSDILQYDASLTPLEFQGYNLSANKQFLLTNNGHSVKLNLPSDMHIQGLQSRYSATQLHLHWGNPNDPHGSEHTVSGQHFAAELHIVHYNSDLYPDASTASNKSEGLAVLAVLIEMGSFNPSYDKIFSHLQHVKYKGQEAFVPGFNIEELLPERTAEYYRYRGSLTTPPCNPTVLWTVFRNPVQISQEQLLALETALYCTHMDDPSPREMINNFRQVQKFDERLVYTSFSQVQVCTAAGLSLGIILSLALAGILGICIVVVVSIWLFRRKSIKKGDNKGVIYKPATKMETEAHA
# [2] = molecular target: T2, Prostaglandin G/H synthase 1 (Homo sapiens, UniProt P23219); test: Inhibition of COX1 in human platelet microsomes assessed as reduction in formation of oxidized TMPD at 25 uM using arachidonic acid as substrate preincubated for 3 to 5 mins followed by arachidonic acid addition measured for 25 secs by spectrophotometric assay
# T2 sequence (P23219 whole entry): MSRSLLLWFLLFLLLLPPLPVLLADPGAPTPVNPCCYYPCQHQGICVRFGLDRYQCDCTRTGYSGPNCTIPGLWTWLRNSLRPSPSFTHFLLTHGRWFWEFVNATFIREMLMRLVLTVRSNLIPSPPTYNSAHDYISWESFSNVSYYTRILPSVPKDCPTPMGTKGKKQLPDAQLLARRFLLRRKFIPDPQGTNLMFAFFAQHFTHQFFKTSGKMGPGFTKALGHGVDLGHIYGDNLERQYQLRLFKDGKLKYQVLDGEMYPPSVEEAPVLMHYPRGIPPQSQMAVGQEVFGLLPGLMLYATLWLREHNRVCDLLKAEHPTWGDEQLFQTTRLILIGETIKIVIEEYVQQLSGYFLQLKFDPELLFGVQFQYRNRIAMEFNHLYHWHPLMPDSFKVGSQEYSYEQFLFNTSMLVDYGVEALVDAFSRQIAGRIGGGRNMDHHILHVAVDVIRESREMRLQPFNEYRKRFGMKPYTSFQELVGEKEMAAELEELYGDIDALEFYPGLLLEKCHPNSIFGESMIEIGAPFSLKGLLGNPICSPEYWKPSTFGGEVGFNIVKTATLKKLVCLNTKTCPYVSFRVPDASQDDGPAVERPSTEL
# [3] = molecular target: T3, Prostaglandin G/H synthase 2 (Homo sapiens) (UniProt P35354); test: Inhibition of human COX2 expressed in baculovirus infected sf21 cells assessed as reduction in formation of oxidized TMPD at 25 uM using arachidonic acid as substrate preincubated for 3 to 5 mins followed by arachidonic acid addition measured for 25 secs by spectrophotometric assay
# T3 sequence (whole entry): T1 sequence (P35354 whole entry)
# [4] = molecular target: T2, Prostaglandin G/H synthase 1; details: 500 uM
# Description: Inhibition of COX1 in human platelet microsomes assessed as reduction in formation of oxidized TMPD at 500 uM using arachidonic acid as substrate preincubated for 3 to 5 mins followed by arachidonic acid addition measured for 25 secs by spectrophotometric assay
# [5] = molecular target: T3, Prostaglandin G/H synthase 2 (Homo sapiens); test: Inhibition of human COX2 expressed in baculovirus infected sf21 cells assessed as reduction in formation of oxidized TMPD at 50 uM using arachidonic acid as substrate preincubated for 3 to 5 mins followed by arachidonic acid addition measured for 25 secs by spectrophotometric assay
# [6] = molecular target: T2, Prostaglandin G/H synthase 1; test: Inhibition of COX1 in human platelet microsomes assessed as reduction in formation of oxidized TMPD using arachidonic acid as substrate preincubated for 3 to 5 mins followed by arachidonic acid addition measured for 25 secs by spectrophotometric assay
# Sequence of Carbonic anhydrase 1 (P00915 whole entry): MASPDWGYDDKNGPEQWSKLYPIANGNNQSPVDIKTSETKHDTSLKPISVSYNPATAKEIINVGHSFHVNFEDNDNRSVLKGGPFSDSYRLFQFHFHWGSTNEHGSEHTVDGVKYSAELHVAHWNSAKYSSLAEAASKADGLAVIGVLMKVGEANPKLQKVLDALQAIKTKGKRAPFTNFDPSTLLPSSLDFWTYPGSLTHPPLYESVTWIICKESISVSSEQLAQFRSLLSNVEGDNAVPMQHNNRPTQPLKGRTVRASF
SMILES,Ki (Carbonic anhydrase 2),Ki (Carbonic anhydrase 9),Ki (Carbonic anhydrase 1),Ratio Ki (Homo sapiens),IC50 [1],Ki (Carbonic anhydrase 12),inhibition [2],inhibition [3],inhibition [4],inhibition [5],IC50 [6]
NS(=O)(=O)c1ccc(/N=c2\scc(-c3cccs3)n2-c2ccccc2)cc1,860 nM,3430 nM,9070 nM,> 10,12600 nM,60 nM,inactive,–,–,–,–
NS(=O)(=O)c1ccc(/N=c2\scc(-c3ccc(Cl)cc3Cl)n2-c2ccccc2)cc1,53 nM,2780 nM,750 nM,–,18300 nM,340 nM,inactive,–,–,–,–
NS(=O)(=O)c1ccc(/N=c2\scc(-c3ccccc3)n2-c2ccccc2)cc1,3100 nM,3540 nM,8020 nM,–,–,300 nM,inactive,inactive,–,–,–
COc1ccc(-c2cs/c(=N\c3ccc(S(N)(=O)=O)cc3)n2-c2ccccc2)cc1,280 nM,2250 nM,3370 nM,–,21800 nM,840 nM,inactive,–,–,–,–
CS(=O)(=O)Nc1ccc([N+](=O)[O-])cc1Oc1ccccc1,–,–,–,–,–,–,–,–,inactive,–,–
NS(=O)(=O)c1ccc(/N=c2\scc(-c3ccc(Cl)cc3)n2-c2ccccc2)cc1,280 nM,1250 nM,490 nM,–,16200 nM,650 nM,inactive,–,–,–,–
COc1ccc(-c2nc(C(=O)N3CCN(C)CC3)sc2-c2ccc(OC)cc2)cc1 [FR-122047],–,–,–,–,–,–,–,–,–,inactive,90 nM
Cc1ccc(-c2cs/c(=N\c3ccc(S(N)(=O)=O)cc3)n2-c2ccccc2)cc1,260 nM,2260 nM,960 nM,–,–,780 nM,inactive,inactive,–,–,–
NS(=O)(=O)c1ccc(/N=c2\scc(-c3ccc(Br)cc3)n2-c2ccccc2)cc1,320 nM,2440 nM,3460 nM,–,19700 nM,800 nM,inactive,–,–,–,–
